Results as given in patent US7396946B2, “Compound for treatment of external secretion disorders” (Sucampo AG, priority 1999, dated 2008).
Marks after values point to notes of the source that are not given here.

What was measured:
[1] = system: Rabbit Dry-eye Syndrome Model, which was Induced by Trigeminal Denervation; test: Basal tear secretion in rabbit dry-eye syndrome model induced by trigeminal denervation (Test Example 2); assay type: in vivo, male Japanese albino rabbits (Std:JW/CSK); settings: for basal tear secretion: 5 eyes
Experimental: (§1) Fifteen male Japanese albino rabbits (Std:JW/CSK) were used.
(§2) (2) Generating Rabbit Dry-eye Syndrome Model by Trigeminal Denervation.
(§3) Urethane (ALDRICH) was administered i.p. at the dose of 1 g/kg to the rabbits of which occipital hair had been shaved.
(§4) After disinfecting of the shaved area, midline incision of the skin was made from the frontal bone to the ear root, and the muscular tissue around the periosteum, temporal bone and manidibular articular process were detached. After the detachment, a hole of 2×1.5 cm in size was made in the bone from the parietal medial region to the temporal region by means of the bone drill (URAWA KOGYO Co., Ltd. MINITOR C-130) under the surgical microscope (KONAN CAMERA R&I Inc., PMO-50). Then, the dura was detached from the cranial bone while cotton bud was kept inserted between the temporal bone and the dura. After the detachment was made up to the cranial base, detachment was further made toward the medial border of the petrous part of temporal bone in the carnial cavity, to find the trigeminal nerve in the petrous part. Then, the dura of about 1 to 2 mm on the nasal side of the semilunar ganglion was incised. After the incision, the two branches of nerve fascicle, i.e. the first branch (ocular nerve) of the trigeminal nerve and the second branch (maxillary nerve) were pulled laterally and cut with corneoscleral scissors. Immediately after the operation, miosis of the ipsilateral eye was confirmed and then the cotton kept inserted was removed, and the skin at the head was closed with suture. After the operation, an antibiotic (MYCILLIN SQL® Meiji) was administered i.m. at the dose of 0.1 ml/kg.
(§5) The trigeminal denervation was made only on the left eye side, while on the right eye side, no trigeminal denervation nor sham operation was made.
(§6) (3) Method of Administration.
(§7) 13,14-dihydro-15-keto-16,16-difluoro-PGE1 was used as an active ingredient of the present invention to prepare test eyedrops containing 0.0001% and 0.001% of the compound. As a control, the vehicle of the eyedrops without the active ingredient was used.
(§8) Each of the compositions was instilled to the eyes everyday at the volume of 30 μl/eye two times a day (at 10:00 and 18:00) for two weeks. Five eyes per each of the test groups and the control group were treated and then examined for the whole tear secretion, the basal tear secretion and the keratoepithelial lesion as follows.
Before the start of the instillation (week 0), and 1, 2, and 3 weeks after the start, the basal tear secretion was measured 2 hours after the 1st instillation on the day of the examination.
Keratoconjunctiva was anesthetized by instillation of 4% lidocaine (Xylocalne® 4% for ophthalmic solution; Fujisawa Pharmaceutical Co., Ltd.), the eye drops and the tear around the eyelid were wiped off about 5 minutes after and loss of keratoconjunctival esthesia was confirmed with the Cochet-Bonnet type esthesiometer. Then, one edge of the Shirmer's test strip was inserted into the conjunctival sac and kept there for 5 minutes. The length of the moistened part was read from the scale on the strip.
The basal tear secretion was expressed by mean value per minute calculated from the 4-minutes value obtained by subtracting the initial 1-minute value from the 5-minutes Sirmer's test, so that the spontaneous volume of the tear retained in the conjunctival sac might be excluded.

[2] = system: Rabbit Dry-eye Syndrome Model, which was Induced by Trigeminal Denervation; test: Whole tear secretion (Schirmer's test) in rabbit dry-eye syndrome model induced by trigeminal denervation (Test Example 2); assay type: in vivo, male Japanese albino rabbits (Std:JW/CSK); settings: for whole tear secretion: 5 eyes
Experimental: as §1, §2, §3, §4, §5, §6, §7, §8
i) Whole Tear Secretion (Schirmer's Test)
Before the start of the instillation (week 0), and 1, 2, and 3 weeks after the start, the whole tear secretion was measured two hours after the first instillation on the day of examination.
Under no anesthetization, one edge of the Schirmer's test strip (Showa Yakuhin Kako Co., Ltd., Lot No. 70080) was inserted into the conjunctival sac of each test animal. One minute after, the strip was removed and the length of the moistened part was read from the scale provided on the strip to determine the amount of whole tear secretion.

[3] = system: rats (SD strain); test: Exaltation of salivation, salivary weight on paper filter (Test Example 4); assay type: in vivo, Male rats (SD strain); settings: 1.0 mg/kg orally once a day for 10 days
Experimental: The effect of the composition of the present invention on salivary secretion was determined. (1) Test Animals Male rats (SD strain) were used. Each of the test and control groups contains 8 animals. (2) Method of Administration 13,14-dihydro-15-keto-16,16-difuloro-PGE1 was used as an active ingredient of the present invention to prepare test solution containing 0.2 mg/ml of the compound. 5 ml/kg of the solution (1.0 mg/kg of the compound) was forcedly administrated orally once a day. For the animals f control group, 5 ml/kg of vehicle without the active ingredient was administrated once a day. The administration was continued for 10 days. (3) Examination The amount of the saliva of the test group and control group was measured one hour after the administration on 10th day. The edge of a paper filter (Schirmer's test strip, Showa Yakuhin Kako Co., Ltd.) was inserted between lower gingiva and mandibula. Three minutes after, the paper filter was removed and the weight of the saliva was calculated by the following formula. weight of saliva=(the weight of paper filter including saliva)−(weight of only paper filter) (4) Result

[4] = system: Rabbit Dry-eye Syndrome Model, which was Induced by Trigeminal Denervation; test: Keratoepithelial lesion score in rabbit dry-eye syndrome model induced by trigeminal denervation (Test Example 2); assay type: in vivo, male Japanese albino rabbits (Std:JW/CSK); settings: for Keratoepithelial lesion: score 0-4 by stained area (Table 2), 5 eyes
Experimental: as §1, §2, §3, §4, §5, §6, §7, §8
iii) Keratoepithelial Lesion
Before the start of instillation (week 0) and 1, 2, and 3 weeks after the start, the keratoepithelial lesion was evaluated two hours after the first instillation on the day of examination.
Each animal was placed in a stainless steel fixator, and given instillation of 50 μl of the mixture of 1% rose bengal and 1% fluorescein to stain their keratoconjunctival epithelium.

[5] = 0.0001% eyedrops 30 μl/eye two times a day for two weeks, week 1
[6] = 0.0001% eyedrops 30 μl/eye two times a day for two weeks, week 2
[7] = 0.0001% eyedrops 30 μl/eye two times a day for two weeks, week 3
[8] = 0.001% eyedrops 30 μl/eye two times a day for two weeks, week 1
[9] = 0.001% eyedrops 30 μl/eye two times a day for two weeks, week 2
[10] = 0.001% eyedrops 30 μl/eye two times a day for two weeks, week 3
[11] = dry-eye syndrome model animals, 0.0001% and 0.001% eyedrops
[12] = test group 0.0001% eyedrops, before administration (after operation, baseline)
[13] = test group 0.001% eyedrops, before administration (after operation, baseline)

SMILES: CCCCC(F)(F)C(=O)CCC1C(O)CC(=O)C1CCCCCCC(=O)O (centres unmarked) [13,14-dihydro-15-keto-16,16-difluoro-PGE1]
- basal tear secretion [1, 5]: 1.53 ± 0.26^[+] mm/min.
- basal tear secretion [1, 6]: 1.60 ± 0.11**^++ mm/min.
- basal tear secretion [1, 7]: 1.48 ± 0.17^#[++] mm/min.
- basal tear secretion [1, 8]: 2.00 ± 0.12*^##++ mm/min.
- basal tear secretion [1, 9]: 2.00 ± 0.18*^##++ mm/min.
- basal tear secretion [1, 10]: 2.00 ± 0.14*^##++ mm/min.
- decreased basal tear secretion (result in words) [1, 11]: improved
- basal tear secretion [1, 12]: 0.43 ± 0.06^[**^] mm/min.
- basal tear secretion [1, 13]: 0.43 ± 0.08 mm/min.
- whole tear secretion [2, 5]: 7.10 ± 0.51**^++ mm/min.
- whole tear secretion [2, 6]: 6.60 ± 0.37*^##++ mm/min.
- whole tear secretion [2, 7]: 6.30 ± 0.68^++ mm/min.
- whole tear secretion [2, 8]: 11.20 ± 0.51**^##++ mm/min.
- whole tear secretion [2, 9]: 10.50 ± 0.57**^##++ mm/min.
- whole tear secretion [2, 10]: 9.90 ± 0.81**^##++ mm/min.
- decreased whole tear secretion (result in words) [2, 11]: improved
- whole tear secretion [2, 12]: 3.00 ± 0.61 mm/min.
- whole tear secretion [2, 13]: 3.20 ± 0.51 mm/min.
- salivary secretion (result in words) ([3]; compared with the control group): significantly increased
- Salivary weight (mean ± S.E.) ([3]; one hour after the administration on 10th day, paper filter 3 minutes, 8 animals): 18.1 ± 5.6 mg
- Keratoepithelial lesion [4, 5]: 1.00 ± 0.27^[*^]++ score
- Keratoepithelial lesion [4, 6]: 0.50 ± 0.16^[*^]++ score
- Keratoepithelial lesion [4, 7]: 0.40 ± 0.19^#++ score
- Keratoepithelial lesion [4, 8]: 0.70 ± 0.34^++ score
- Keratoepithelial lesion [4, 9]: 0.10 ± 0.10^[++] score
- Keratoepithelial lesion [4, 10]: 0.10 ± 0.10^[##][++] score
- keratoconjunctival lesion accompanied by the decrease of the tear secretion (result in words) [4, 11]: improved
- Keratoepithelial lesion [4, 12]: 3.00 ± 0.32^[**^] score
- Keratoepithelial lesion [4, 13]: 3.00 ± 0.32^[**^] score
